Results: patent publication US7247746B2, “Crystal forms of N-(trans-4-isopropylcyclohexylcarbonyl)-D-phenylalanine” (Novartis, AG, priority 2002, dated 2007)

Test: solubility of nateglinide in crystallisation solvents
Assay type: physicochemical
Source text: First solvents in which nateglinide is readily soluble, i.e., in amounts of at least 1% by weight at an ambient temperature, include lower alcohols, such as methanol, ethanol and isopropanol. Polar solvents such as acetone, tetrahydrofuran, dioxane and dichloromethane can also be effective when used as the first solvent. Second solvents in which nateglinide is only poorly soluble, i.e., in amounts of 0.01% by weight or less, include water, hexane, heptane and diethyl ether. Where a mixed solvent is employed as the first solvent, a mixture of ethanol and toluene or a mixture of methanol and ethyl acetate is effective preferably in combination with water as the second solvent, and more preferably with water containing from about 0.5 to about 3% by weight of hydroxypropylmethylcellulose. The amount of nateglinide in the solvent ranges preferably from 1 to 50% by weight of the resulting mixture. If the amount of nateglinide is more than 50% by weight then the slurry properties of the initial suspension are poor and it will be difficult to agitate the mixture and dissolve the solid. On the other hand, it is not efficient in terms of the volume of the solvent required to use less than 1% of nateglinide by weight. […]

## CC(C)[C@H]1CC[C@H](C(=O)N[C@H](Cc2ccccc2)C(=O)O)CC1 [nateglinide, N-(trans-4-isopropylcyclohexylcarbonyl)-D-phenylalanine]
At an ambient temperature, methanol, ethanol, isopropanol, also acetone, tetrahydrofuran, dioxane, dichloromethane
  amount in which nateglinide is readily soluble (first solvents): at least 1 % by weight
water, hexane, heptane and diethyl ether
  amount in which nateglinide is only poorly soluble (second solvents): ≤ 0.01 % by weight
